Data reported in US20080038278A1, “GPAT3 encodes a mammalian, microsomal acyl-coa:glycerol 3- phosphate acyltransferase” (priority 2006, published 2008).

Key:
mGPAT3 mRNA = mGPAT3 mRNA (Q-PCR) in white adipose tissue of ob/ob mice treated with PPARγ agonist; format: in vivo, mouse; conditions: 15 mg/kg gavage once a day for 21 days
Procedure: To confirm and extend the transcriptional profiling data, TAQMAN® (Applied Biosystems, Foster City, Calif.) real-time quantitative PCR (Q-PCR) analysis was performed using probes specific for mouse and human GPAT3. Briefly, undifferentiated and differentiated 3T3-L1 adipocytes, tissues from normal 8-12 week old male C57B1/6J mice, and tissues from 10-week old male ob/ob and age-matched wild type control mice were obtained as previously described (Lake et al., supra). For PPARγ agonist treatment, 10-week old male ob/ob mice were gavaged once a day with 15 mg/kg rosiglitazone or vehicle control for 21 days. RNA and cDNA were prepared as previously described (Lake et al., supra). Gene profiling data were generated using the MOE430 chip according to the manufacturer's recommendations (Affymetrix, Santa Clara, Calif.). Q-PCR was performed using an ABI PRISM® 7900 sequence detector (Applied Biosystems, Foster City, Calif.) with 18s as an internal control as described (Lake et al., supra). Gene-specific primers and probes were obtained from Applied Biosystems (Cat. Nos. mm00554802_ml and Hs00262010_ml). Relative expression was determined by the […] (Applied Biosystems, Foster City, Calif.).
PPARγ agonists such as rosiglitazone induce expression of the lipogenic program in adipose tissue (Rosen and Spiegelman (2001) J. Biol. Chem. 276:37731-34). […]

hGPAT3 = molecular target: T1, hGPAT3 (Homo sapiens, UniProt Q53EU6); test: GPAT activity assay (TLC separation of LPA) in lysates of cells overexpressing hGPAT3; format: biochemical; conditions: for substrate concentration at half-maximal activity (hGPAT3-dependent LPA formation): hGPAT3 expressed in Sf9 cells, nonpurified lysate, other substrate at 100 μM; for increase in LPA formation conferred by hGPAT3 overexpression after NEM pretreatment: preincubated 15 min with NEM (0.4 mM, 0.4 μM elsewhere in the source)
T1 construct: full-length mouse and human GPAT3 were cloned by PCR amplification from cDNA libraries; made in house; host or cells: Sf9 insect cells (baculovirus, pFASTBAC1), total lysate; some experiments used lysates of HEK293 cells transfected with hGPAT3 in pcDNA3.1
T1 sequence (Q53EU6 1-434): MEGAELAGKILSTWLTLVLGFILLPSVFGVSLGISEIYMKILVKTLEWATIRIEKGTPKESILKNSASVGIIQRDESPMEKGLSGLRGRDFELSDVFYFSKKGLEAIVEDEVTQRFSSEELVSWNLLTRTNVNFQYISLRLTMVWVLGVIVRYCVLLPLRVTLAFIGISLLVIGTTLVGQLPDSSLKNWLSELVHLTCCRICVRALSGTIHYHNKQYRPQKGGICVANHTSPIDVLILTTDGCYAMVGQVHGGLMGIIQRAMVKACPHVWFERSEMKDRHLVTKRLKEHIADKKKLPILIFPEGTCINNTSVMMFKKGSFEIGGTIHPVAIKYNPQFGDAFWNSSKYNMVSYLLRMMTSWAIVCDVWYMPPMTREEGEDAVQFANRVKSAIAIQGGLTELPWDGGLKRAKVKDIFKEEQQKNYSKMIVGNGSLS
Description: Sf9 cells were infected with recombinant baculovirus at an MOI of 10 for 64 hrs. Cell pellets were harvested in ice-cold phosphate-buffered saline (PBS), lysed by sonication or Parr bomb, and total lysate was used immediately for enzyme assay. For subcellular fractionation, cel.ls were lysed with a rapid nitrogen decompression method (Parr Instrument Company, IL), followed by differential centrifugation at 8,000g (mitochondrial fraction) and 1 00,000g (microsomal fraction). Total protein concentration was assayed using a Bio-Rad protein assay with bovine serum albumin (BSA) as a standard (Bio-Rad, Hercules, Calif.). GPAT activity was determined by measuring the conversion of glycerol 3-phosphate (G3 P) to 1-acyl-sn-glycerol 3-phosphate in the presence of acyl-CoA. Formation of enzymatic products was detected by either the conventional 1-butanol extraction method followed by scintillation counting, or by thin layer chromatography (TLC) separation followed by exposure to a phosphorimager screen. GPAT activity assay by I -butanol extraction was performed as described (Yet et al., supra; Haldar and Vancura (1992) Methods Enzymol. 209:64-72). Briefly, cell lysates containing 100 μg protein were incubated for 20 min at room temperature in 75 mM Tris HCl, pH 7.5, 4 mM MgCl2, 1 mg/ml fatty acid-free BSA, 8 mM NaF, 50 μM lauroyl-CoA, 3 mM glycerol 3-phosphate, and 1 μCi of [^3H]glycerol 3-phosphate (30 Ci/mmol, American Radiolabeled Chemicals, Inc., St. Louis, Mo.) in a total volume of 250 μl. The reaction was stopped by addition of 0.5 ml of water-saturated 1-butanol and 0.5 ml of 1-butanol-saturated water followed by a vigorous vortex for 5 min. After a brief spin, the top phase (butanol) was transferred to a fresh tube and washed again with 0.5 ml of butanol-saturated water. Finally, an aliquot of the butanol phase was mixed with scintillation cocktail to count radioactivity using Accurate Radioisotope Counting (ARC).
To assess the GPAT activity more precisely, a TLC separation procedure was utilized. […] For TLC, enzymatic products were identified using standards detected by exposure to […]. All quantitative data are expressed as mean±S.E. Statistical analyses for differences between two groups were carried out using a Student's t-test.
To further investigate the role of GPAT3 in TAG and/or phospholipid synthesis in mammalian cells, GPAT3 was overexpressed in HEK293 cells and the incorporation of [^14C]oleic acid into TAG or phospholipids was measured. […]

human mtGPAT1 = molecular target: T2, human mtGPAT1 (Homo sapiens, UniProt Q9HCL2); test: GPAT activity assay (TLC separation of LPA) in lysates of HEK293 cells overexpressing mtGPAT1; format: biochemical; conditions: preincubated 15 min with NEM
T2 construct: expressed in transfected cells; host or cells: HEK293 cells, transient transfection (FUGENE 6); total lysate assayed
T2 sequence (Q9HCL2 1-828): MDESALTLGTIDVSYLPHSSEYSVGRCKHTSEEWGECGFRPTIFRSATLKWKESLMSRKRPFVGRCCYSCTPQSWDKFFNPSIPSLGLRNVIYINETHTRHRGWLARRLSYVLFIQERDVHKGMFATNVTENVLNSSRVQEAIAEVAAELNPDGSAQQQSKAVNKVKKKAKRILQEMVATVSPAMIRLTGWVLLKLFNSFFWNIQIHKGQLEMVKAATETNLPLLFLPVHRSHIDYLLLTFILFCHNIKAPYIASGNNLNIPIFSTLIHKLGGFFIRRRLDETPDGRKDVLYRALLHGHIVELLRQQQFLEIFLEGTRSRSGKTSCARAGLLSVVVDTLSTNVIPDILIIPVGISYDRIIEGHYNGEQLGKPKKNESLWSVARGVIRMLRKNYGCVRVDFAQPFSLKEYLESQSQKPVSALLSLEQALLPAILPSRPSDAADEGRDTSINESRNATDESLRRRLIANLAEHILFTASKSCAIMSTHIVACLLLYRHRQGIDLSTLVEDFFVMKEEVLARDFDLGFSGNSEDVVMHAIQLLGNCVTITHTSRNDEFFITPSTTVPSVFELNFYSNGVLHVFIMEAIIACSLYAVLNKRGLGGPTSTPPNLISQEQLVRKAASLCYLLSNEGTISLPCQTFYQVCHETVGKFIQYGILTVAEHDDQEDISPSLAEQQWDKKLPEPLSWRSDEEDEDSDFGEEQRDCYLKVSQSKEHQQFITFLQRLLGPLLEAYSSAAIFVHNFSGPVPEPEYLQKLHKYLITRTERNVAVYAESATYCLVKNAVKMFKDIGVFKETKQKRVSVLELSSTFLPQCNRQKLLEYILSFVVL

Structure (SMILES): CN(CCOc1ccc(CC2SC(=O)NC2=O)cc1)c1ccccn1 (stereo not drawn) [rosiglitazone]
- induced expression of mGPAT3 mRNA in white adipose tissue over control (mGPAT3 mRNA): 4.5 fold

Structure (SMILES): O=P(O)(O)OCC(O)CO (stereo not drawn) [G3P, glycerol 3-phosphate]
- substrate concentration at half-maximal activity (hGPAT3-dependent LPA formation) (hGPAT3): ~80 µM

Structure (SMILES): CCCCCCCCCCCC(=O)SCCNC(=O)CCNC(=O)[C@H](O)C(C)(C)COP(=O)(O)OP(=O)(O)OC[C@H]1O[C@@H](n2cnc3c(N)ncnc32)[C@H](O)[C@@H]1OP(=O)(O)O [lauroyl-CoA]
- substrate concentration at half-maximal activity (hGPAT3-dependent LPA formation) (hGPAT3): ~25 µM

Structure (SMILES): CCN1C(=O)C=CC1=O [NEM, N-ethylmaleimide]
- mtGPAT1-dependent LPA formation after NEM pretreatment (human mtGPAT1): not affected
- increase in LPA formation conferred by hGPAT3 overexpression after NEM pretreatment (hGPAT3; HEK293 lysates): completely abolished
- increase in LPA formation conferred by hGPAT3 overexpression after NEM pretreatment (hGPAT3; Sf-9 lysates): completely abolished
